Test results from patent US20220388964A1 (HiberCell, Inc., priority 2019, published 2022).

Target: GCN2 (Homo sapiens, UniProt Q9P2K8)
Assay: TR-FRET biochemical assay for inhibition of GCN2 (Example 106, for Example 1-4BB)
Settings: Table 8

Sequence of GCN2 (Q9P2K8 whole entry): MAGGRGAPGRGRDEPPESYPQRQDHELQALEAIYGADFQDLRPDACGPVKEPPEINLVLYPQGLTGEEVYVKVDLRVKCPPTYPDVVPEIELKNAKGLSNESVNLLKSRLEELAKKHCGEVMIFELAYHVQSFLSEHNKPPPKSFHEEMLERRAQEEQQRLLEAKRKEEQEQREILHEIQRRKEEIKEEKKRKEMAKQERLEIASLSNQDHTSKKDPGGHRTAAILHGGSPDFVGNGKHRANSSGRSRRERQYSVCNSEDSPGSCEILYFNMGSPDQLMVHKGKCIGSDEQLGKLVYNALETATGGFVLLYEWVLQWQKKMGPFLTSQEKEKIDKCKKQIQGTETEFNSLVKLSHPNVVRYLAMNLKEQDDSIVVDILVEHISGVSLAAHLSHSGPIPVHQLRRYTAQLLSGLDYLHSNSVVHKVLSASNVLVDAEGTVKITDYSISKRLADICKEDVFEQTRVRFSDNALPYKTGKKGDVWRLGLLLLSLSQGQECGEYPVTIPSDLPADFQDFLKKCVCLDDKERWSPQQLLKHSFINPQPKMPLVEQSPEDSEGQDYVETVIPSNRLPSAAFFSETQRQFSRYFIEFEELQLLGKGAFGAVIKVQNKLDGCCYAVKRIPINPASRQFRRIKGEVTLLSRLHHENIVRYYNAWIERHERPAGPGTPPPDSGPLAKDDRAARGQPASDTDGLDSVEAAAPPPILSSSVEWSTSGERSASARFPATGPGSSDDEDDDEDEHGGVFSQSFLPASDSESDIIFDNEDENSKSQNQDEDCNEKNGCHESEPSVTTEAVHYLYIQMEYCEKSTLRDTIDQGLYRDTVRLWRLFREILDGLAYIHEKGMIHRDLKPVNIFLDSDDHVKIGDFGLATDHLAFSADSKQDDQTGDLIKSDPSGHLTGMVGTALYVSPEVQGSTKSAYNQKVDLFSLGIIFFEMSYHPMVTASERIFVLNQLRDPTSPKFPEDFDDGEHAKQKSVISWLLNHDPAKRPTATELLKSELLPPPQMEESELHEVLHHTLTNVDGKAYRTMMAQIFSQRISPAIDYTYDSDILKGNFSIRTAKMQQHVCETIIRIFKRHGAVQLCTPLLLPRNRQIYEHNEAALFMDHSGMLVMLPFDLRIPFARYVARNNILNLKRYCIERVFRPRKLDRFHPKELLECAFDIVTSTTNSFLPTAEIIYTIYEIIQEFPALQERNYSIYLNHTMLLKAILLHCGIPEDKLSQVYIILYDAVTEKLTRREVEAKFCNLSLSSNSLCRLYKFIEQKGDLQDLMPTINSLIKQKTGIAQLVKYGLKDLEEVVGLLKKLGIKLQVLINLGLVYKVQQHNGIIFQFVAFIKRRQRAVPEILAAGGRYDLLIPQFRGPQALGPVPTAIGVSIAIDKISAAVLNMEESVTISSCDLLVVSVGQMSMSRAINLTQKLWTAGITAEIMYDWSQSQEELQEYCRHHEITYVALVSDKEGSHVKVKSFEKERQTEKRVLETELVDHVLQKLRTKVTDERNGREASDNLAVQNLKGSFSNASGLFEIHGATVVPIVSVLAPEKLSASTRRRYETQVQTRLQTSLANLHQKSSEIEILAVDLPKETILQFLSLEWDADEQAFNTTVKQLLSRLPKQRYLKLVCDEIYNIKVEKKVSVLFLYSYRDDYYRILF

| Compound | IC50 |
| --- | --- |
| COc1ncccc1S(=O)(=O)Nc1ncc(F)c(-c2ccc3c(-c4ncc[nH]4)n[nH]c3c2F)c1F [Example 2CL, N-(3,5-difluoro-4-(7-fluoro-3-(1H-imidazol-2-yl)-1H-indazol-6-yl)pyridin-2-yl)-2-methoxypyridine-3-sulfonamide] | < 0.5 µM |
| Cc1ncc(Cl)cc1S(=O)(=O)Nc1ccc(F)c(-c2ccc3c(-c4ncc[nH]4)n[nH]c3c2F)c1F [Example 2CM, 5-chloro-N-(2,4-difluoro-3-(7-fluoro-3-(1H-imidazol-2-yl)-1H-indazol-6-yl)phenyl)-2-methylpyridine-3-sulfonamide] | < 0.5 µM |
| O=S(=O)(Nc1ccc(F)c(-c2ccc3c(-c4ncc[nH]4)n[nH]c3c2F)c1F)c1cccc(Cl)c1 [Example 2CN, 3-chloro-N-(2,4-difluoro-3-(7-fluoro-3-(1H-imidazol-2-yl)-1H-indazol-6-yl)phenyl)ben-zenesulfonamide] | 0.5 to 2.5 µM |
| O=S(=O)(Nc1ccc(F)c(-c2ccc3c(-c4ncc[nH]4)n[nH]c3c2F)c1F)c1cccnc1 [Example 2CO, N-(2,4-difluoro-3-(7-fluoro-3-(1H-imidazol-2-yl)-1H-indazol-6-yl)phenyl)pyridine-3-sulfonamide] | 2.5 to 10 µM |
| CCn1cc(S(=O)(=O)Nc2ccc(F)c(-c3ccc4c(-c5ncc[nH]5)n[nH]c4c3F)c2F)cn1 [Example 2D, N-(2,4-difluoro-3-(7-fluoro-3-(1H-imidazol-2-yl)-1H-indazol-6-yl)phenyl)-1-ethyl-1H-pyrazole-4-sulfonamide] | 2.5 to 10 µM |
| Cc1nn(C)c(C)c1S(=O)(=O)Nc1ccc(F)c(-c2ccc3c(-c4ncc[nH]4)n[nH]c3c2F)c1F [Example 2E, N-(2,4-difluoro-3-(7-fluoro-3-(1H-imidazol-2-yl)-1H-indazol-6-yl)phenyl)-1,3,5-trimethyl-1H-pyrazole-4-sulfonamide] | 0.5 to 2.5 µM |
| COc1cccc(S(=O)(=O)Nc2ccc(F)c(-c3ccc4c(-c5ncc[nH]5)n[nH]c4c3F)c2F)c1 [Example 2F, N-(2,4-difluoro-3-(7-fluoro-3-(1H-imidazol-2-yl)-1H-indazol-6-yl)phenyl)-3-methoxy-benzene-sulfonamide] | < 0.5 µM |
| CC(C)c1ccc(S(=O)(=O)Nc2ccc(F)c(-c3ccc4c(-c5ncc[nH]5)n[nH]c4c3F)c2F)cc1 [Example 2G, N-(2,4-difluoro-3-(7-fluoro-3-(1H-imidazol-2-yl)-1H-indazol-6-yl)phenyl)-4-isopropyl-benzenesulfonamide] | > 10 µM |
| Cn1cc(S(=O)(=O)Nc2ccc(F)c(-c3ccc4c(-c5ncc[nH]5)n[nH]c4c3F)c2F)c(Cl)n1 [Example 2H, 3-chloro-N-(2,4-difluoro-3-(7-fluoro-3-(1H-imidazol-2-yl)-1H-indazol-6-yl)phenyl)-1-methyl-1H-pyrazole-4-sulfonamide] | 0.5 to 2.5 µM |
| Cc1nn(C)cc1S(=O)(=O)Nc1ccc(F)c(-c2ccc3c(-c4ncc[nH]4)n[nH]c3c2F)c1F [Example 2I, N-(2,4-difluoro-3-(7-fluoro-3-(1H-imidazol-2-yl)-1H-indazol-6-yl)phenyl)-1,3-dimethyl-1H-pyrazole-4-sulfonamide] | 0.5 to 2.5 µM |
| COc1ncc(Cl)cc1S(=O)(=O)Nc1ccc(F)c(-c2ccc3c(-c4ncc[nH]4)n[nH]c3c2F)c1 [Example 2J, 5-chloro-N-(4-fluoro-3-(7-fluoro-3-(1H-imidazol-2-yl)-1H-indazol-6-yl)phenyl)-2-methoxy-pyridine-3-sulfonamide] | < 0.5 µM |
| COc1nn(C)cc1S(=O)(=O)Nc1ccc(F)c(-c2ccc3c(-c4ncc[nH]4)n[nH]c3c2F)c1F [Example 2K, N-(2,4-difluoro-3-(7-fluoro-3-(1H-imidazol-2-yl)-1H-indazol-6-yl)phenyl)-3-methoxy-1-methyl-1H-pyrazole-4-sulfonamide] | 0.5 to 2.5 µM |
| CC(C)c1cccc(S(=O)(=O)Nc2ccc(F)c(-c3ccc4c(-c5ncc[nH]5)n[nH]c4c3F)c2F)c1 [Example 2L, N-(2,4-difluoro-3-(7-fluoro-3-(1H-imidazol-2-yl)-1H-indazol-6-yl)phenyl)-3-isopropyl-benzenesulfonamide] | 2.5 to 10 µM |
| COc1ncc(Cl)cc1S(=O)(=O)Nc1cccc(-c2ccc3c(-c4ncc[nH]4)n[nH]c3c2F)c1F [Example 2M, 5-chloro-N-(2-fluoro-3-(7-fluoro-3-(1H-imidazol-2-yl)-1H-indazol-6-yl)phenyl)-2-methoxy-pyridine-3-sulfonamide] | < 0.5 µM |
| Cc1nn(C)cc1S(=O)(=O)Nc1cccc(-c2ccc3c(-c4ncc[nH]4)n[nH]c3c2F)c1F [Example 2N, N-(2-fluoro-3-(7-fluoro-3-(1H-imidazol-2-yl)-1H-indazol-6-yl)phenyl)-1,3-dimethyl-1H-pyrazole-4-sulfonamide] | 2.5 to 10 µM |
| COc1ncc(Cl)cc1S(=O)(=O)Nc1cccc(-c2ccc3c(-c4ncc[nH]4)n[nH]c3c2F)c1Cl [Example 2O, 5-chloro-N-(2-chloro-3-(7-fluoro-3-(1H-imidazol-2-yl)-1H-indazol-6-yl)phenyl)-2-methoxy-pyridine-3-sulfonamide] | < 0.5 µM |
| COc1ncc(Cl)cc1S(=O)(=O)Nc1cccc(-c2ccc3c(-c4ncc[nH]4)n[nH]c3c2F)c1C [Example 2P, 5-chloro-N-(3-(7-fluoro-3-(1H-imidazol-2-yl)-1H-indazol-6-yl)-2-methylphenyl)-2-methoxypyridine-3-sulfonamide] | < 0.5 µM |
| O=S(=O)(Nc1ccc(F)c(-c2ccc3c(-c4ncc[nH]4)n[nH]c3c2F)c1F)c1cccnc1CO [Example 2Q, N-(2,4-difluoro-3-(7-fluoro-3-(1H-imidazol-2-yl)-1H-indazol-6-yl)phenyl)-2-(hydroxyl-methyl)pyridine-3-sulfonamide] | 0.5 to 2.5 µM |
| Cn1ccnc1S(=O)(=O)Nc1ccc(F)c(-c2ccc3c(-c4ncc[nH]4)n[nH]c3c2F)c1F [Example 2S, N-(2,4-difluoro-3-(7-fluoro-3-(1H-imidazol-2-yl)-1H-indazol-6-yl)phenyl)-1-methyl-1H-imidazole-2-sulfonamide] | 2.5 to 10 µM |
| COc1ncc(Cl)cc1S(=O)(=O)Nc1ccc(F)c(-c2ccc3c(-c4ncc[nH]4)n[nH]c3c2F)c1Cl [Example 2T, 5-chloro-N-(2-chloro-4-fluoro-3-(7-fluoro-3-(1H-imidazol-2-yl)-1H-indazol-6-yl)phenyl)-2-methoxypyridine-3-sulfonamide] | < 0.5 µM |
| COc1ncccc1S(=O)(=O)Nc1ccc(F)c(-c2ccc3c(-c4ncc[nH]4)n[nH]c3c2F)c1F [Example 2U, N-(2,4-difluoro-3-(7-fluoro-3-(1H-imidazol-2-yl)-1H-indazol-6-yl)phenyl)-2-methoxy-pyridine-3-sulfonamide] | < 0.5 µM |
| COc1ncc(F)cc1S(=O)(=O)Nc1ccc(F)c(-c2ccc3c(-c4ncc[nH]4)n[nH]c3c2F)c1F [Example 2V, 5-fluoro-N-(2,4-difluoro-3-(7-fluoro-3-(1H-imidazol-2-yl)-1H-indazol-6-yl)phenyl)-2-methoxy-pyridine-3-sulfonamide] | < 0.5 µM |
| Cn1cc(S(=O)(=O)Nc2ccc(F)c(-c3ccc4c(-c5ncc[nH]5)n[nH]c4c3F)c2F)nn1 [Example 2W, N-(2,4-difluoro-3-(7-fluoro-3-(1H-imidazol-2-yl)-1H-indazol-6-yl)phenyl)-1-methyl-1H-1,2,3-triazole-4-sulfonamide] | 2.5 to 10 µM |
